Like-named read-outs stand apart in the source and are kept apart here.
Experiments:
[1] = target: T1, Manduca sexta EcR (MsEcR) (Manduca sexta, UniProt P49883); test: Two-hybrid gene switch assay, MsEcR-CDEF in NIH3T3 cells; conditions: for rel max FI (20E), MS: max fold induction at any concentration relative to 20E; for rel max FI (PoA), MS: max fold induction at any concentration relative to PoA
T1 sequence (P49883 293-531 limits assumed): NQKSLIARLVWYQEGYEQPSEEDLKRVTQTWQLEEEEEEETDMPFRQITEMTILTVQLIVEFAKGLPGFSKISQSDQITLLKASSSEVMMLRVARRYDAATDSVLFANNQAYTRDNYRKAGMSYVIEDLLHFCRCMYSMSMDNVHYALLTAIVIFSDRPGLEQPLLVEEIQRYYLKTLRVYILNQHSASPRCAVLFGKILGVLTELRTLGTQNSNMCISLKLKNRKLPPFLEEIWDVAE

[2] = system: Nephotettix cincticeps EcR (NcEcR-DEF); test: Two-hybrid gene switch assay, NcEcR-DEF in NIH3T3 cells; conditions: for rel max FI (20E), NC: max fold induction at any concentration relative to 20E; for rel max FI (PoA), NC: max fold induction at any concentration relative to PoA; for EC50: read-out: EC50 (μM), NC, NIH3T3 cells, luciferase, 48 h, ligand 0.01-33 μM
[3] = target: T2, wild-type Aedes aegypti EcR (AaEcR-DEF) (Aedes aegypti, UniProt P49880); test: Two-hybrid gene switch assay, AaEcR-DEF in NIH3T3 cells; conditions: AaEcR; for rel max FI (20E), AA: max fold induction at any concentration relative to 20E; for rel max FI (PoA), AA: max fold induction at any concentration relative to PoA; for EC50: NIH3T3 cells, luciferase, 48 h, ligand 0.01-33 μM
T2 sequence (P49880 405-776 limits assumed): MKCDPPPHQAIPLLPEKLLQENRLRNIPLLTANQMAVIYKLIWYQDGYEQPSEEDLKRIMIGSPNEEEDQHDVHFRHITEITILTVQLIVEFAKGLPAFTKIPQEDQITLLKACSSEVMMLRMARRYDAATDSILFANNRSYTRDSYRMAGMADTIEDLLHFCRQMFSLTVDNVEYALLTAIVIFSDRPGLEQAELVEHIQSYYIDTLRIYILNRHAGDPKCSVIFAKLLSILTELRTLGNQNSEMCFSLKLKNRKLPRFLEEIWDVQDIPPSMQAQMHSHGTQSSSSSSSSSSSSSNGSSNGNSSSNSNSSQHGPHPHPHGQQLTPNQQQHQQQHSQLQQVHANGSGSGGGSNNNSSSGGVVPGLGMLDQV

[4] = target: Bemisia argentifolii EcR (BaEcR-DEF) (Bemisia argentifolii (Bemisia tabaci biotype B / MEAM1), UniProt A0A6M3RDR8); test: Two-hybrid gene switch assay, BaEcR-DEF in NIH3T3 cells; conditions: for Emax: NIH3T3, 48 h
Sequence of Bemisia argentifolii EcR (BaEcR-DEF) (P28702 298-449): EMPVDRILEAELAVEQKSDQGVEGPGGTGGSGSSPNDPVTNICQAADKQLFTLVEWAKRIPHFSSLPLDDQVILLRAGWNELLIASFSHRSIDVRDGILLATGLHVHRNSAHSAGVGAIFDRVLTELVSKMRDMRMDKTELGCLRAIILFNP
Sequence of Bemisia argentifolii EcR (BaEcR-DEF) (A0A6M3RDR8 entry or part of it): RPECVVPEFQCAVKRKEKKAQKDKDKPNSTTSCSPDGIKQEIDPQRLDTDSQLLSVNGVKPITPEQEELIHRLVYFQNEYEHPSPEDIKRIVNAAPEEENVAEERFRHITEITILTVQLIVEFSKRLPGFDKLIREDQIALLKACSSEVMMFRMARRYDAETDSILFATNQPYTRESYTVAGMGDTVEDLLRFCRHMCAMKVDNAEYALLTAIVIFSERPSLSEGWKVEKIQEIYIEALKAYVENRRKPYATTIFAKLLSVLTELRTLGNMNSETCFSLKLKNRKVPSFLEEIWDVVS

Compound | rel max FI (20E), MS ([1]; MsEcR) | rel max FI (PoA), MS ([1]; MsEcR) | EC50 ([1]; read-out: EC50 (μM), MS, MsEcR, NIH3T3 cells, luciferase, 48 h, ligand 0.01-33 μM) [µM] | rel max FI (20E), NC [2] | rel max FI (PoA), NC [2] | EC50 [2] [µM] | rel max FI (20E), AA [3] | rel max FI (PoA), AA [3] | EC50 ([3]; read-out: EC50 (μM), AA) [µM] | rel max FI (20E), BA ([4]; BaEcR, max fold induction at any concentration relative to 20E) | rel max FI (PoA), BA ([4]; BaEcR, max fold induction at any concentration relative to PoA) | EC50 ([4]; read-out: EC50 (μM), BA, BaEcR, NIH3T3 cells, luciferase, 48 h, ligand 0.01-33 μM) [µM] | EC50 [1] [µM] | EC50 ([3]; EC50 (μM), AA) [µM] | EC50 [4] [µM] | Emax ([4]; read-out: rel max FI (20E), BA) [%] | Emax ([4]; read-out: rel max FI (PoA), BA) [%]
COC1C[C@H]2C(=O)C=C3[C@H](CC[C@]4(C)[C@@H]([C@@](C)(O)C(CCC(C)(C)O)OC)CC[C@@]34OC)[C@@]2(C)CC1OC (stereo partly drawn) [20E-2,3,14,22-tetramethyl ether] | 0.00 | 0.00 | > 33 | 0.01 | 0.01 | > 33 | 0.07 | 0.02 | > 33 | 0.02 | 0.01 | > 33 | – | – | – | – | –
CO[C@H]1C[C@@]2(C)[C@@H](C[C@H]1O)C(=O)C=C1[C@@H]2CC[C@]2(C)[C@@H]([C@@](C)(O)[C@@H](CCC(C)(C)O)OC)CC[C@@]12O [20E-2,22-dimethyl ether] | 0.15 | 0.09 | – | 0.84 | 0.86 | ~10 | 2.34 | 0.80 | – | – | – | – | ~20 | ~8 | ~10 | 24 | 19
CO[C@H]1C[C@@]2(C)[C@@H](C[C@H]1O)C(=O)C=C1[C@@H]2CC[C@]2(C)[C@@H]([C@@](C)(O)[C@H](O)CCC(C)(C)O)CC[C@@]12O [20E-2-methyl ether] | 0.16 | 0.10 | – | 0.82 | 0.84 | ~8 | 0.87 | 0.30 | – | – | – | – | ~20 | ~10 | > 33 | 3 | 3
CO[C@@H]1C[C@H]2C(=O)C=C3[C@H](CC[C@]4(C)[C@@H]([C@@](C)(O)[C@@H](CCC(C)(C)O)OC)CC[C@@]34O)[C@@]2(C)C[C@@H]1O [20E-3,22-dimethyl ether] | 0.82 | 0.52 | – | 1.03 | 1.06 | ~8 | 2.32 | 0.79 | – | – | – | – | ~10 | 7.15 | ~10 | 38 | 30
CO[C@@H]1C[C@H]2C(=O)C=C3[C@H](CC[C@]4(C)[C@@H]([C@@](C)(O)[C@H](O)CCC(C)(C)O)CC[C@@]34O)[C@@]2(C)C[C@@H]1O [20E-3-methyl ether] | 1.15 | 0.73 | – | 1.01 | 1.04 | 1.69 | 1.75 | 0.60 | – | – | – | – | ~10 | ~10 | ~15 | 29 | 23
CO[C@H](CCC(C)(C)O)[C@](C)(O)C1CC[C@@]2(O)C3=CC(=O)C4C[C@@H](O)[C@@H](O)CC4(C)C3CCC12C (stereo partly drawn) [20E-22-methyl ether] | 1.29 | 0.81 | – | 1.02 | 1.05 | 2.59 | 2.52 | 0.86 | – | – | – | – | ~10 | 1.04 | ~3 | 154 | 123
